Results on six molecules are retold here after article PMC10304880, “Novel Tryptanthrin Derivatives with Selectivity as c–Jun N–Terminal Kinase (JNK) 3 Inhibitors” (Molecules, 2023).

Read-outs that look alike come from different tables or passages of the source.

The target in data set [1] is T1, JNK3 (Homo sapiens, UniProt P53779).
T1 construct: purchased Eurofins Pharma Discovery (KINOMEscan service)
Description: KINOMEscan JNK3 binding (Kd). The settings on record: for Kd: KINOMEscan, 12-point series, max 33 μM, duplicate; for Selectivity Index JNK1/JNK3 / Selectivity Index JNK2/JNK3: ratio of Kd values. Here is the method: (§1) All compounds were evaluated for their ability to bind to JNK1-3 using the KINOMEscan platform.
(§2) Compounds were submitted for dissociation constant (Kd) determination using KINOMEscan (Eurofins Pharma Discovery, San Diego, CA, USA), as described previously. […] Primary screening at fixed concentrations of compounds was performed in duplicate. To determine dissociation constant Kd, a 12-point half-log dilution series (a maximum concentration of 33 μM) was used.

The nature of data set [2]: CellTiter-Glo cytotoxicity in MonoMac-6 cells. The data set is classed as cell-based. To be noted: human, 24 h incubation. Here is the method: (§3) Prior to evaluation of the compounds in cell-based assays, we measured their cytotoxicity in human monocytic THP-1Blue and MonoMac-6 cells during a 24 h incubation. […] Thus, these compounds were all excluded from subsequent testing in these cell lines.
(§4) Cytotoxicity was analyzed with a CellTiter-Glo Luminescent Cell Viability Assay Kit from Promega (Madison, WI, USA), according to the manufacturer’s protocol. Cells were treated with the compound under investigation and cultivated for 24 h. After treatment, the cells were allowed to equilibrate to room temperature for 30 min, substrate was added, and the luminescence measured using a Fluoroscan Ascent FL (Thermo Fisher Scientific, Waltham, MA, USA). The cell IC50 values were calculated by plotting the percentage inhibition against the logarithm of inhibitor concentration (at least five points).
For orientation: ATP-based viability assays read luminescence as a measure of living cells.

In data set [3] the test system is c-Jun phosphorylation in MonoMac-6 cells. The data set is described as follows: LPS-induced c-Jun (Ser63) phosphorylation in MonoMac-6 cells (sandwich ELISA). It is filed as cell-based, human. The settings on record: 30 min pretreatment, LPS 500 ng/mL. Here is the method: After 30 min pretreatment with the compounds, the cells were stimulated with LPS (500 ng/mL), and the level of phospho-c-Jun (S63) was determined by a sandwich ELISA.
MonoMac-6 cell lysates were prepared using Cell Lysis Buffer (Cell Signaling Technology, Danvers, MA, USA). The phospho-c-Jun content was measured with ELISA using the PathScan Phospho-c-Jun (Ser63) Sandwich ELISA Kit II (Cell Signaling Technology, USA), and the data are shown as the ratio of phospho-c-Jun vs. total c-Jun, which was measured using the FastScanTM Total c-Jun ELISA kit (Cell Signaling Technology).
Figure 3 Effect of the compounds 4d, 4e, 4h, and IQ-1S on LPS-induced c-Jun phosphorylation. Human MonoMac-6 monocytic cells were pretreated with the indicated concentrations of compounds or 0.5% DMSO for 30 min, followed by treatment with LPS (500 ng/mL) or control buffer for another 30 min. The cells were lysed, and the lysates were analyzed with ELISA for phospho-c-Jun (Ser63) and total c-Jun. The data are represented as the ratio of phospho-c-Jun to total c-Jun. The data are presented as the mean ± S.D. of triplicate samples from one experiment that is representative of three independent experiments. * Significant differences (p < 0.05) with LPS control.
For orientation: ELISA stands for enzyme-linked immunosorbent assay.

The target of data set [4] is T2, JNK2 (Homo sapiens, UniProt P45984).
T2 construct: purchased Eurofins Pharma Discovery (KINOMEscan service)
T2 sequence (P45984 whole entry): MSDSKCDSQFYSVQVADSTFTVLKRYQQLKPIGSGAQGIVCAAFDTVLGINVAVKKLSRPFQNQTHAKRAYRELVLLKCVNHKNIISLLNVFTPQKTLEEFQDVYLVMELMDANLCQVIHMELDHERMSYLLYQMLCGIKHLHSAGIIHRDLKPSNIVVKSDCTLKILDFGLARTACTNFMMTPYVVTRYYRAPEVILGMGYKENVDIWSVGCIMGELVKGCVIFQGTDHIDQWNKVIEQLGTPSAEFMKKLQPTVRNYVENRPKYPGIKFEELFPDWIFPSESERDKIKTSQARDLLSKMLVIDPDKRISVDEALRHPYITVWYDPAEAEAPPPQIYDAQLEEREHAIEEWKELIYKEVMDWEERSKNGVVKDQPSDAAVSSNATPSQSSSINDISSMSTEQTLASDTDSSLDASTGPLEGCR
Description: KINOMEscan JNK2 binding (Kd). The settings on record: 12-point series, max 33 μM, duplicate. Here is the method: as §1, §2

Data set [5] in a line: CellTiter-Glo cytotoxicity in THP-1Blue cells. The settings on record: human, 24 h incubation. The data set is classed as cell-based. Here is the method: as §3, §4
The target of data set [6] is T3, JNK1 (Homo sapiens, UniProt P45983).
T3 construct: purchased Eurofins Pharma Discovery (KINOMEscan service)
T3 sequence (P45983 whole entry): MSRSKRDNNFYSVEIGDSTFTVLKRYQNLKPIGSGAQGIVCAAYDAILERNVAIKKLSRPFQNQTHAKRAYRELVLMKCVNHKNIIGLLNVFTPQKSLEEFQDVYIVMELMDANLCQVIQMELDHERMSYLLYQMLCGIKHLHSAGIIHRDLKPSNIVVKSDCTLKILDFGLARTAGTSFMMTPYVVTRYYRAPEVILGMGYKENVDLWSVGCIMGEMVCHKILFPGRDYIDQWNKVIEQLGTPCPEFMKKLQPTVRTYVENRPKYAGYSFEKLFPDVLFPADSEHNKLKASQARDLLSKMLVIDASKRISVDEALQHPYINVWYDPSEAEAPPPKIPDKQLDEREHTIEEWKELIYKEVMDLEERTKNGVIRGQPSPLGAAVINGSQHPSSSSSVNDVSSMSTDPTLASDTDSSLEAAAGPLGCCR
Description: KINOMEscan JNK1 binding (Kd). To be noted: 12-point series, max 33 μM, duplicate. Here is the method:
as §1, §2

Data set [7] concerns NF-κB/AP-1 transcriptional activity in THP-1Blue cells. Description: LPS-induced NF-κB/AP-1 alkaline phosphatase reporter assay in THP-1Blue cells. It is filed as cell-based. To be noted: Homo sapiens, 30 min pretreatment, 250 ng/mL LPS, 24 h; read-out: AP Production in THP–1Blue IC50. Here is the method: Activation of AP-1/NF-κB was measured using an alkaline phosphatase reporter gene assay in THP1-Blue cells. Human monocytic THP-1Blue cells were stably transfected with a secreted embryonic alkaline phosphatase gene that was under the control of a promoter inducible by AP-1/NF-κB.
Figure 2 Effect of compounds 4d and 4e on NF-κB/AP-1 activity and IL-6 production. Panel (A) THP-1Blue cells were pretreated with the indicated compounds or DMSO for 30 min, followed by addition of 250 ng/mL LPS or buffer for 24 h. […] Panel (B) MonoMac-6 cells were pretreated with the indicated compounds or DMSO for 30 min, followed by addition of 250 ng/mL LPS or buffer for 24 h. Production of IL-6 in the supernatants was evaluated with ELISA. The data in each panel are presented as the mean ± S.D. of triplicate samples from one experiment that is representative of three independent experiments.
(In general: A reporter such as luciferase makes a cellular process visible.)

Data set [8] concerns IL-6 production in MonoMac-6 cells. The data set is described as follows: LPS-induced IL-6 production in MonoMac-6 cells (ELISA). It is filed as cell-based, human. The settings on record: 250 ng/mL LPS, 24 h. Here is the method: All cells were cultured at 37 °C in a humidified atmosphere containing 5% CO2. Human THP-1Blue monocytic cells obtained from InvivoGen (San Diego, CA, USA) were cultured in RPMI 1640 medium (Mediatech Inc., Herndon, VA, USA) supplemented with 10% (v/v) fetal bovine serum (FBS), 4.5 g/L glucose, 100 μg/mL streptomycin, 100 U/mL penicillin, 100 μg/mL phleomycin (Zeocin), and 10 μg/mL blasticidin S. Human monocyte-macrophage MonoMac-6 cells (Deutsche Sammlung von Mikroorganismen und Zellkulturen GmbH, Braunschweig, Germany) were grown in RPMI 1640 medium supplemented with 10% (v/v) FBS, 10 μg/mL bovine insulin, 100 μg/mL streptomycin, and 100 U/mL penicillin.
Panel (A) THP-1Blue cells were pretreated with the indicated compounds or DMSO for 30 min, followed by addition of 250 ng/mL LPS or buffer for 24 h. […] Panel (B) MonoMac-6 cells were pretreated with the indicated compounds or DMSO for 30 min, followed by addition of 250 ng/mL LPS or buffer for 24 h. Production of IL-6 in the supernatants was evaluated with ELISA. The data in each panel are presented as the mean ± S.D. of triplicate samples from one experiment that is representative of three independent experiments.

The target of data set [9] is T2, JNK2. To be noted: Figure 1; ref [49],[50],[51]; cited from earlier work.
Data set [10] addresses T1, JNK3. To be noted: cited from earlier work; for Kd: Figure 1, ref [49],[50],[51].
Data set [11] has as its target T3, JNK1. The settings on record: Figure 1; ref [49],[50],[51]; cited from earlier work.

T1 sequence (P53779 whole entry): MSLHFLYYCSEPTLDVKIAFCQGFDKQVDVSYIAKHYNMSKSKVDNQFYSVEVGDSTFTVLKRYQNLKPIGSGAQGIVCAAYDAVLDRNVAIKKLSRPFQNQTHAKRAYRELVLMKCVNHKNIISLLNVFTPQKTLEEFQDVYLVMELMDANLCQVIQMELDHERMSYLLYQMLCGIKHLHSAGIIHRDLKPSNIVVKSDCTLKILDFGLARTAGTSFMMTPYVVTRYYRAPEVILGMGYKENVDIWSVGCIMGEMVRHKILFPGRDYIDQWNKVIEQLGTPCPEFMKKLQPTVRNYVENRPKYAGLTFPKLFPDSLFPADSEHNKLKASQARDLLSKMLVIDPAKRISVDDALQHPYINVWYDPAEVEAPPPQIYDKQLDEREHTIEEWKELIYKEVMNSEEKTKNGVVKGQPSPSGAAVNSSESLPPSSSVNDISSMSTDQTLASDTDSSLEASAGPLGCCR

The Kd is the concentration at which binding is half-saturated. Usually IC50 stands for the concentration that gives 50% inhibition. The term melting point denotes the temperature, or range, at which the solid turns liquid. With `Cc1ccc2c(c1)-n1c(nc3ccccc3c1=O)C2=NO` [Compound 4h, 9-Methylindolo[2,1-b]quinazolin-6,12-dione Oxime], the melting point is > 225 °C (dec.). On JNK3 [1], the dissociation constant Kd was 0.23 ± 0.04 µM, the “Selectivity Index JNK1/JNK3” value amounted to 2.9 and the “Selectivity Index JNK2/JNK3” value was 2.5. Moreover, the IC50 at 24 h in [2] is over 50 µM. In data set [3], the “LPS-induced c-Jun phosphorylation (phospho-c-Jun S63 / total c-Jun)” value is “dose-dependently inhibited”. The Kd at JNK2 [4] turned out to be 0.57 ± 0.12 µM. The half-inhibitory concentration (IC50) at 24 h in data set [5] is over 50 µM. Further, the Kd on JNK1 [6] is 0.67 ± 0.35 µM.

As to `COc1ccc2c(c1)C(=NO)c1nc3ccccc3c(=O)n1-2` [Compound 4d, 8-Methoxyindolo[2,1-b]quinazolin-6,12-dione Oxime], the melting point was > 225 °C (dec.). Moreover, at JNK3 [1], the “selectivity index (JNK3 versus JNK1 and JNK2)” value was over 7; the Kd came out at 0.34 ± 0.03 µM; the “Selectivity Index JNK1/JNK3” value is recorded as over 100; the “Selectivity Index JNK2/JNK3” value is recorded as over 100. Moreover, the IC50 in [7] was 0.8 ± 0.3 µM. Moreover, the half-maximal inhibitory concentration (IC50) at 24 h in data set [2] is over 50 µM. In addition, the “LPS-induced c-Jun phosphorylation (phospho-c-Jun S63 / total c-Jun)” value in [3] was “dose-dependently inhibited”. The concentration for half-maximal inhibition (IC50) in data set [8] (30 min pretreatment) is 0.7 ± 0.1 µM. In addition, the half-maximal inhibitory concentration (IC50) in data set [8] (Homo sapiens, MONO-MAC-6, 30 min pretreatment) is under 1 µM. Besides, at JNK2 [4], the dissociation constant Kd was over 30 µM. In data set [5], this molecule yielded a concentration for half-maximal inhibition (IC50) at 24 h of over 50 µM. At JNK1 [6], the dissociation constant Kd is over 30 µM.

As to `O/N=C1\c2ccccc2-c2nc3ccc(Cl)cc3nc21` [IQ–6i], the equilibrium dissociation constant (Kd) is 21.5 µM on JNK2 [9], 0.71 µM at JNK3 [10] and 1.1 µM on JNK1 [11].

As to `N#CCO/N=C1\c2ccccc2-n2c1nc1ccccc1c2=O` [TRYP–1e], the equilibrium dissociation constant (Kd) on JNK2 [9] was 17.5 µM; at JNK3 [10], 1.5 µM; at JNK1 [11], 19.5 µM. In addition, the “selectivity for JNK3 binding versus JNK1/JNK2” value on JNK3 [10] (ref [49]) is on record as ~ 10 fold.

On to `O/N=C1\c2ccccc2-c2nc3cc(F)c(F)cc3nc21` [IQ–4f], for which the results for the dissociation constant (Kd) at JNK2 [9], at JNK3 [10] and at JNK1 [11] were over 30 µM, 0.52 µM and 0.17 µM, respectively.

Regarding `O=c1c2ccccc2nc2n1-c1ccc(-c3ccccc3)cc1C2=NO` [Compound 4e, 8-Phenylindolo[2,1-b]quinazolin-6,12-dione Oxime], the melting point is > 225 °C (dec.). At JNK3 [1], the “selectivity index (JNK3 versus JNK1 and JNK2)” value is over 7; the Kd worked out at 0.34 ± 0.04 µM; the “Selectivity Index JNK1/JNK3” value was over 100; the “Selectivity Index JNK2/JNK3” value is on record as over 100. Also, the concentration for half-maximal inhibition (IC50) in [7] is 1.6 ± 0.1 µM. The IC50 at 24 h in [2] was over 50 µM. Also, the “LPS-induced c-Jun phosphorylation (phospho-c-Jun S63 / total c-Jun)” value in data set [3] is “dose-dependently inhibited”. For the same molecule, on JNK2 [4], the dissociation constant Kd is over 30 µM. In [5], this molecule gave a concentration for half-maximal inhibition (IC50) at 24 h of over 50 µM. Moreover, the Kd on JNK1 [6] was over 30 µM.
